Values after ≈ are worked out from the molar mass of the structure shown. Active and inactive are the calls of the source. The rule behind the calls is not given here.
What was measured:
Escherichia coli [1] = test: Anti-bacterial activity against Escherichia coli ATCC 25922 assessed as growth inhibition by measuring optical density measured at 2 time of MIC in presence of 1/2 times of MIC of norfloxacin by Checkerboard assay (reference value: 0.128); format: functional
Acinetobacter baumannii [2] = test: Anti-bacterial activity against Acinetobacter baumannii assessed as growth inhibition by measuring optical density measured at 4 time of MIC in presence of 2 times of MIC of norfloxacin by Checkerboard assay (reference value: 0.152); format: functional
Escherichia coli [3] = test: Anti-bacterial activity against Escherichia coli ATCC 25922 assessed as growth inhibition by measuring optical density measured at 4 time of MIC in presence of 1 times of MIC of norfloxacin by Checkerboard assay (reference value: 0.125); format: functional
Acinetobacter baumannii [4] = test: Induction of intracellular ROS accumulation in Acinetobacter baumannii assessed as fluorescence intensity at 1/4 to 2 times of MIC by DCFH-DA staining based assay; format: functional, organism-based
Acinetobacter baumannii [5] = test: Anti-bacterial activity against Acinetobacter baumannii assessed as fractional inhibitory concentration measured upto 9 hrs in presence of norfloxacin; format: functional
Acinetobacter baumannii [6] = test: Bactericidal activity against Acinetobacter baumannii assessed as bacterial killing at 1 to 8 times of MIC concentration measured upto 8 hrs by time-kill kinetics assay; format: functional, organism-based
Acinetobacter baumannii [7] = test: Reduction of biofilm virulent factors in Acinetobacter baumannii assessed as decrease in extracellular polymeric substances (EPS) at 2 times of MIC concentration by congo red binding assay relative to control; format: functional; parameters: scale not given: the % may be the effect or the level left
Pseudomonas aeruginosa [8] = test: Anti-bacterial activity against Pseudomonas aeruginosa ATCC 9027 assessed as inhibition of bacterial growth; format: functional
Enterococcus faecalis = test: Anti-bacterial activity against Enterococcus faecalis V583 assessed as inhibition of bacterial growth; format: functional
Escherichia coli [9] = test: Anti-bacterial activity against Escherichia coli ATCC 25922 assessed as growth inhibition by measuring optical density measured at 1/4 time of MIC in presence of 1/8 times of MIC of norfloxacin by Checkerboard assay (reference value: 0.128); format: functional
Acinetobacter baumannii [10] = test: Anti-bacterial activity against Acinetobacter baumannii assessed as growth inhibition by measuring optical density measured at 1/2 time of MIC in presence of 1/2 times of MIC of norfloxacin by Checkerboard assay (reference value: 0.152); format: functional
Escherichia coli [11] = test: Anti-bacterial activity against Escherichia coli ATCC 25922 assessed at fractional inhibitory concentration measured upto 9 hrs in presence of norfloxacin; format: functional
Acinetobacter baumannii [12] = test: Anti-bacterial activity against Acinetobacter baumannii assessed as growth inhibition by measuring optical density measured at 2 time of MIC in presence of 1/2 times of MIC of norfloxacin by Checkerboard assay (reference value: 0.155); format: functional
Escherichia coli [13] = test: Anti-bacterial activity against Escherichia coli ATCC 25922 assessed as bacterial mortality at 1 to 4 MIC concentration by propidium iodide based fluorescence microscopy relative to control; format: functional, organism-based
Acinetobacter baumannii [14] = test: Induction of membrane depolarization Acinetobacter baumannii assessed as increase in red fluorescence intensity at 0.5 to 8 times of MIC concentration measured after 6 hrs by […] assay; format: functional, organism-based
Escherichia coli [15] = test: Induction of intracellular ROS accumulation in Escherichia coli ATCC 25922 assessed as fluorescence intensity at 1/4 to 2 times of MIC by DCFH-DA staining based assay; format: functional, organism-based
Acinetobacter baumannii [16] = test: Reduction of biofilm virulent factors in Acinetobacter baumannii assessed as decrease in extracellular polymeric substances (EPS) at 4 times of MIC concentration by congo red binding assay relative to control; format: functional; parameters: scale not given: the % may be the effect or the level left
Escherichia coli [17] = test: Anti-bacterial activity against Escherichia coli ATCC 25922 assessed as growth inhibition by measuring optical density measured at 1 time of MIC in presence of 1 times of MIC of norfloxacin by Checkerboard assay (reference value: 0.125); format: functional
Acinetobacter baumannii [18] = test: Anti-bacterial activity against Acinetobacter baumannii assessed as inhibition of bacterial growth measured after 20 passages at sub-MIC concentration by multiple resistance study; format: functional, organism-based
Escherichia coli [19] = test: Induction of intracellular ROS accumulation in Escherichia coli ATCC 25922 assessed as larger green fluorescence densities at 1/4 to 2 times of MIC by microscopic imaging assay; format: functional, organism-based
Escherichia coli [20] = test: Anti-bacterial activity against Escherichia coli ATCC 25922 assessed as inhibition of bacterial growth measured upto 9 hrs; format: functional, organism-based
Acinetobacter baumannii [21] = test: Anti-bacterial activity against Acinetobacter baumannii assessed as fractional inhibitory concentration index measured upto 9 hrs in presence of norfloxacin; format: functional
Pseudomonas aeruginosa [22] = test: Anti-bacterial activity against Pseudomonas aeruginosa ST235 assessed as inhibition of bacterial growth; format: functional; settings: Pseudomonas aeruginosa, ST235; read-out: MIC
Escherichia coli [23] = test: Anti-bacterial activity against Escherichia coli ATCC 25922 assessed as growth inhibition by measuring optical density measured at 1 time of MIC in presence of 2 times of MIC of norfloxacin by Checkerboard assay (reference value: 0.125); format: functional
Escherichia coli [24] = test: Reduction in metabolic activity of Escherichia coli ATCC 25922 assessed as biomass of the fluorescent pink change to non-fluorescent blue; format: functional, organism-based
Acinetobacter baumannii [25] = test: Anti-bacterial activity against Acinetobacter baumannii assessed as growth inhibition by measuring optical density measured at 1 time of MIC in presence of 2 times of MIC of norfloxacin by Checkerboard assay (reference value: 0.157); format: functional
Escherichia coli [26] = test: Anti-bacterial activity against Escherichia coli ATCC 25922 assessed as inhibition of bacterial growth; format: functional
Acinetobacter baumannii [27] = test: Reduction of biofilm virulent factors in Acinetobacter baumannii assessed as decrease in extracellular polymeric substances (EPS) by measuring optical density at 490 nm at 4 times of MIC concentration by congo red binding assay (reference value: 0.188 to 0.192); format: functional
Acinetobacter baumannii [28] = test: Anti-bacterial activity against Acinetobacter baumannii assessed as growth inhibition by measuring optical density measured at 1 time of MIC in presence of 1/4 times of MIC of norfloxacin by Checkerboard assay (reference value: 0.157); format: functional
Candida albicans = test: Anti-fungal activity against Candida albicans assessed as inhibition of fungal growth; format: functional; settings: Candida albicans; read-out: MIC
Escherichia coli [29] = test: Reduction in metabolic activity of Escherichia coli ATCC 25922 assessed as decrease in fluorescence intensity at 1/4 to 8 times of MIC measured after 6 hrs by resazurin sodium salt assay; format: functional, organism-based
BEAS-2B = test: Cytotoxicity against human BEAS-2B cells assessed as cell viability at 0.064 mmol/L measured after 24 hrs; format: toxicity, cell-based; settings: 64 µM
Acinetobacter baumannii [30] = test: Anti-bacterial activity against Acinetobacter baumannii assessed as growth inhibition by measuring optical density measured at 1/4 time of MIC in presence of 1/2 times of MIC of norfloxacin by Checkerboard assay (reference value: 0.152); format: functional
Acinetobacter baumannii [31] = test: Antibiofilm activity against Acinetobacter baumannii assessed as reduction of self-aggregation; format: functional, organism-based
Cell membrane = test: Induction of physical destruction of cell membrane in Escherichia coli ATCC 25922 assessed as leakage of nucleic acid by measuring absorbance of 260 nm at 1/4 to 8 times of MIC concentration; format: cell membranes
Acinetobacter baumannii [32] = test: Anti-bacterial activity against Acinetobacter baumannii assessed as growth inhibition by measuring optical density measured at 2 time of MIC in presence of 1/8 times of MIC of norfloxacin by Checkerboard assay (reference value: 0.155); format: functional

CCCCc1nc(Cl)c(C2NC(=O)NC(CN3CCN(C(=O)/C(=N/OC)c4csc(N)n4)CC3)=C2C(=O)OCC)[nH]1 (stereo unspecified)
OD (Escherichia coli [1]): 0.057 | OD (Acinetobacter baumannii [2]): 0.051 | OD (Escherichia coli [3]): 0.051 | Activity (Acinetobacter baumannii [4]): Active | FIC (Acinetobacter baumannii [5]): 0.5 | Activity (Acinetobacter baumannii [6]): Active | Activity (Acinetobacter baumannii [7]): 70.2% | MIC (Pseudomonas aeruginosa [8]): 26 µM (≈ 15.8 µg/mL) | MIC (Enterococcus faecalis): 13 µM (≈ 7.91 µg/mL) | OD (Escherichia coli [9]): 0.122 | OD (Acinetobacter baumannii [10]): 0.107 | FIC (Escherichia coli [11]): 0.5 | OD (Acinetobacter baumannii [12]): 0.05 | Activity (Escherichia coli [13]): Active | Activity (Acinetobacter baumannii [14]): Active | Activity (Escherichia coli [15]): Active | Activity (Acinetobacter baumannii [16]): 52.4% | OD (Escherichia coli [17]): 0.056 | Activity (Acinetobacter baumannii [18]): Active | Activity (Escherichia coli [19]): Active | Activity (Escherichia coli [20]): Dose-Dependent Effect | fractional inhibitory concentration index (FICI) (Acinetobacter baumannii [21]): 0.75 | MIC (Pseudomonas aeruginosa [22]): 26 µM (≈ 15.8 µg/mL) | OD (Escherichia coli [23]): 0.051 | Activity (Escherichia coli [24]): Active | OD (Acinetobacter baumannii [25]): 0.053 | MIC (Escherichia coli [26]): 7 µM (≈ 4.26 µg/mL) | OD (Acinetobacter baumannii [27]): 0.097 | OD (Acinetobacter baumannii [28]): 0.109 | MIC (Candida albicans): 422 µM (≈ 257 µg/mL) | Activity (Escherichia coli [29]): Active | Activity (BEAS-2B): Non-Toxic | OD (Acinetobacter baumannii [30]): 0.125 | Activity (Acinetobacter baumannii [31]): Dose-Dependent Effect | Activity (Cell membrane): Active | OD (Acinetobacter baumannii [32]): 0.128
